Results on two molecules are retold here after patent publication US20050152857A1, “Method and preparation for reducing sunburn cell formation in skin” (PCR Technology Holdings, LC, priority 2004, published 2005).

For series [1], the system named is sunburn cells in human skin. Description: 2-week human sun burn cell assay study with glycolic acid compositions (Formulas 4-5, 1.5 MED solar simulator). The format is in vivo. To be noted: compared with normal, untreated skin, UV-exposed. An excerpt:
The idebenone-containing Formula 4 and the placebo Formula 5 of Example 3 were applied to human skin in a 2-week human sun burn cell assay study.
The panel composition was six different healthy adult volunteers between the ages of 18 and 53. All were in excellent health, and without any significant internal or dermatological diseases. The subjects were carefully screened to insure they were not taking any medications.
The subjects were given detailed instructions to avoid any direct exposure to sunlight and to minimize any incidental exposure to their backs for the entire duration of the study. […]
The light source used was a 150 watt xenon arc solar simulator equipped with a UV reflecting diachronic mirror and a 1 mm thick Schott WG-320 filter to produce simulation of the solar spectrum. […] Total irradiance at skin level was measured with a calibrated Eppley Thermopile and the UVB component was monitored with a UVB radiometer (International Light Inc, Newburyport, Mass.). […]
Two days prior to the end of the study, the MED (minimal erythema dose) for each subject was determined by exposing several normal untreated skin sites over the midback area to a series of exposures in 25% dose increments from the solar simulator. […] The MED was recorded in the appropriate case record form. […]

The subject of series [2] is sensitivity of skin to UV light. The conditions noted are these: cited from earlier work.

On to `COC1=C(OC)C(=O)C(CCCCCCCCCCO)=C(C)C1=O` [idebenone, 6-(10-hydroxydecyl)-2,3-dimethoxy-5-methyl-1,4-benzoquinone], for which the “prevention of the increase in sun sensitivity / sunburn cell formation produced by 10 wt. % glycolic acid” value in series [1] was “prevented the increase in formation of sunburn cells”.

On to `O=C(O)CO` [glycolic acid], for which the “sensitivity of skin to UV light, sunburn cell induction” value in series [2] (10% glycolic acid (pH 3.5) once daily, 6 days per week, 4 weeks, 1.5 MED, 29 Caucasian subjects) is reported as “enhanced sensitivity to UV light, including increased sunburn cell induction”. Besides, the “duration of photosensitivity after terminating treatments” value in series [2] (10% glycolic acid (pH 3.5), after 4 weeks of treatment) is “reversed within a week of terminating treatments”.
